Test results published in paper PMC9424690, “Phosphonic acid-containing inhibitors of tyrosyl-DNA phosphodiesterase 1” (Frontiers in Chemistry, 2022).
Where two headings read alike, the source gives them in different places.

How the values were obtained:
TDP1 (148–608) = target: T1, TDP1 (148–608) (Homo sapiens, UniProt Q9NUW8); assay: Gel-based fluorescence assay of TDP1-catalyzed hydrolysis, truncated TDP1 (148–608); assay type: biochemical; conditions: for IC50: truncated TDP1 (148–608) catalytic domain, 5′-Cy5 N14Y DNA substrate, 15 min, room temperature, repeated three times
T1 construct: was incubated with recombinant full-length TDP1 or TDP1 (148–608) (40 p.m.)
Experimental: (§1) The synthetic products were examined for their ability to inhibit TDP1 catalysis in in vitro gel-based fluorescence assays as previously described ([Lountos et al., 2019]; [Zhao et al., 2021]). A 5′-Cy5-labelled DNA substrate (N14Y, 5′-Cy5-[…]-pY-3′) was incubated in TDP1 reaction buffer with recombinant TDP1 ([…].) or truncated TDP1 (148–608) in the absence or presence of inhibitors for 15 min at room temperature. Inhibitors were evaluated at concentrations ranging from 12 μM to 27 mM (Figure 4). The TDP1 inhibition values were calculated based on gel images of cleavage product (N14P, 5′-Cy5-[…]-p-3′) shown in Figure 4 and listed in Table 1.
(§2) The inhibition of TDP1 was also conducted according to gel-based as previously described ([Lountos et al., 2019]; [Zhao et al., 2021]). Briefly, the DNA substrate (1 nM, 5′Cy5-[…]-pY-3′) was incubated with recombinant full-length TDP1 or TDP1 (148–608) (40 p.m.) in the absence or presence of inhibitors for 15 min at room temperature in TDP1 reaction buffer (50 mM Tris HCl, pH 7.5, 80 mM KCl, 2 mM EDTA, 1 mM DTT, 40 μg/ml BSA and 0.01% Tween-20). Reactions were stopped by adding an equal volume of gel loading buffer (99.5% (v/v) formamide, 5 mM EDTA). Samples were then subjected to a 20% denaturing PAGE gel following by gel scanning using a Typhoon FLA 9500 scanner (GE Healthcare). The IC50 values of TDP1 inhibitors were calculated by comparing the percentage of cleavage product (5′Cy5-[…]-p-3′) to DMSO control.

full-length TDP1 [1] = target: T2, full-length TDP1 (Homo sapiens, UniProt Q9NUW8); assay: Gel-based fluorescence assay of TDP1-catalyzed hydrolysis, full-length TDP1; assay type: biochemical; conditions: for IC50: full-length recombinant TDP1, 5′-Cy5 N14Y DNA substrate, 15 min, room temperature, repeated three times
T2 construct: was incubated with recombinant full-length TDP1 or TDP1 (148–608) (40 p.m.)
Experimental: as §1, §2

[2] = Drug solubility observed at high concentrations in the gel assay; assay type: physicochemical; conditions: high concentrations in TDP1 gel assay (crescent vague bands); series up to 9 mM (3c) or 27 mM
Experimental: FIGURE 4 Representative gels for inhibition of full-length TDP1-catalyzed hydrolysis by phenylphosphonic acids 3a—3e and benzylphosphonic acids 4a—4c. In each gel: lane 1, N14Y only; lane 2, N14Y and TDP1; lanes 3–10, 3-fold serial dilution of drugs from 12 μM to 27 mM except for 3c from 12 μM to 9 mM.

full-length TDP1 [3] = target: T2, full-length TDP1; design: method as in Zhao et al., 2021; conditions: gel-based fluorescence assay, compounds reported in previous paper, ref Zhao et al., 2021; cited from earlier work

T1 sequence (Q9NUW8 148-608): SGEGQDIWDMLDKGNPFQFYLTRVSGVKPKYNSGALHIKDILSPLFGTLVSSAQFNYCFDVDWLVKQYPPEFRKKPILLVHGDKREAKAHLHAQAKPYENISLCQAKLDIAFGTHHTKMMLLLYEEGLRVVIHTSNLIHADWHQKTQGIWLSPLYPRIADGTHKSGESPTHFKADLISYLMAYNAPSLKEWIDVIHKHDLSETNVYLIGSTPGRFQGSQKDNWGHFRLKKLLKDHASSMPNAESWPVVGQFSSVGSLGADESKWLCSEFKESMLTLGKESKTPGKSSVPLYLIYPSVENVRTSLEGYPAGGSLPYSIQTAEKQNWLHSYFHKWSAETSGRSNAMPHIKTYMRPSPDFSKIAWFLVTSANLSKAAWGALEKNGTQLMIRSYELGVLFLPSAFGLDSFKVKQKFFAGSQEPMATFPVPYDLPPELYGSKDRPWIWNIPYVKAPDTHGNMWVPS
T2 sequence (Q9NUW8 whole entry): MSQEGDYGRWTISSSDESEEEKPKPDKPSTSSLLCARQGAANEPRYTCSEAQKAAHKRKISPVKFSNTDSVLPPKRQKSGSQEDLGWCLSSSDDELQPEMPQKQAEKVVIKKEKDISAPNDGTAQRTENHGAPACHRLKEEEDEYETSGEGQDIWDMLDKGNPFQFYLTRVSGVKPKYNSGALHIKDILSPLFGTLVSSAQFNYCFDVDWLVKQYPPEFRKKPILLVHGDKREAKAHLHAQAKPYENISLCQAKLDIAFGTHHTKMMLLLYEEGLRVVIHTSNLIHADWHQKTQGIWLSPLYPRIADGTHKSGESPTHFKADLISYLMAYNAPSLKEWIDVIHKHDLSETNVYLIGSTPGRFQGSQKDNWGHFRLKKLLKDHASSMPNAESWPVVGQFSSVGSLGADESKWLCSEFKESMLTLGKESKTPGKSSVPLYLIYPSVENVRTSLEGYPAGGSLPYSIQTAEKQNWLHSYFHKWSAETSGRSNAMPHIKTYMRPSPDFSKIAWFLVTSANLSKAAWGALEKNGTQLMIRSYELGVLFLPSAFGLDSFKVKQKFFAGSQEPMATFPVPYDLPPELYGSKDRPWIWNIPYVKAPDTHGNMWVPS

IC50 (TDP1 (148–608)) [µM]	IC50 (full-length TDP1 [1]) [µM]	Drug solubility [2]	Increase of inhibitory potency on adding a 7-phenyl group (full-length TDP1 [1]; full-length TDP1, 3c and 3e relative to 3b and 3d, 4c relative to 4b)	More potent using catalytic domain TDP1 (148–608) relative to full-length TDP1 (TDP1 (148–608); TDP1 (148–608) vs full-length TDP1) [fold]	SMILES	IC50 (full-length TDP1 [3]) [µM]
1190 ± 350	583 ± 11.5	–	approximately 3 fold	–	O=P(O)(O)Cc1ccc(Nc2c(-c3ccccc3)nc3cc(-c4ccccc4)ccn23)cc1 [Compound 4c, (4-((2,7-Diphenylimidazo [1,2-a]pyridin-3-yl)amino)benzyl)phosphonic acid]	–
4810 ± 228	1650 ± 850	–	–	–	O=P(O)(O)Cc1ccc(Nc2c(-c3ccccc3)nc3ccccn23)cc1 [Compound 4b, (4-((2-Phenylimidazo [1,2-a]pyridin-3-yl)amino)benzyl)phosphonic acid]	–
4360 ± 472	1280 ± 112	–	–	–	O=P(O)(O)Cc1ccc(Nc2c(-c3ccccc3)nc3cnccn23)cc1 [Compound 4a, (4-((2-Phenylimidazo [1,2-a]pyrazin-3-yl)amino)benzyl)phosphonic acid]	–

More lines, now with the values behind:

SMILES	IC50 (TDP1 (148–608)) [µM]	IC50 (full-length TDP1 [1]) [µM]	Drug solubility [2]	Increase of inhibitory potency on adding a 7-phenyl group (full-length TDP1 [1]; full-length TDP1, 3c and 3e relative to 3b and 3d, 4c relative to 4b)	More potent using catalytic domain TDP1 (148–608) relative to full-length TDP1 (TDP1 (148–608); TDP1 (148–608) vs full-length TDP1) [fold]	IC50 (full-length TDP1 [3]) [µM]
O=P(O)(O)c1ccc(Nc2c(-c3ccccc3)nc3cnccn23)cc1 [Compound 3a, (4-((2-Phenylimidazo [1,2-a]pyrazin-3-yl)amino)phenyl)phosphonic acid]	4720 ± 430	2450 ± 36	–	–	–	–
O=P(O)(O)c1ccc(Nc2c(-c3ccccc3O)nc3cc(-c4ccccc4)ccn23)cc1 [Compound 3e, (4-((2-(2-Hydroxyphenyl)-7-phenylimidazo [1,2-a]pyridin-3-yl)amino)phenyl)phosphonic acid]	605 ± 32	293 ± 7.5	poor drug solubility	–	–	–
O=P(O)(O)c1ccc(Nc2c(-c3ccccc3)nc3cc(-c4ccccc4)ccn23)cc1 [Compound 3c, (4-((2,7-Diphenylimidazo [1,2-a]pyridin-3-yl)amino)phenyl)phosphonic acid]	225 ± 2.3	545 ± 8	poor drug solubility	–	2	–
O=P(O)(O)c1ccc(Nc2c(-c3ccccc3O)nc3ccccn23)cc1 [Compound 3d, (4-((2-(2-Hydroxyphenyl)imidazo [1,2-a]pyridin-3-yl)amino)phenyl)phosphonic acid]	4480 ± 50	1580 ± 166	–	–	–	–
O=C(O)c1ccc(Nc2c(-c3ccccc3)nc3cnccn23)cc1C(=O)O [Compound 2a]	–	–	–	–	–	> 100
O=P(O)(O)c1ccc(Nc2c(-c3ccccc3)nc3ccccn23)cc1 [Compound 3b, (4-((2-Phenylimidazo [1,2-a]pyridin-3-yl)amino)phenyl)phosphonic acid]	3810 ± 751	1660 ± 160	–	–	–	–
